The results in this text go back to ChEMBL document CHEMBL1201862, “PubChem BioAssay data set” (2004).

Test systems include XF498; SNB-78; KM-20L2; DMS-114; RXF 631; LXFL 529; DMS-273; HOP-18; DLD-1.
Holding throughout (experiment): inhibition of tumour cell growth, NCI panel, 48 h

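Grown in 96-well plates, cells were treated for 48 hours with each compound at five concentrations. Insufficient inhibition: endpoint recorded as highest concentration tested. GI50: concentration for 50% inhibition of growth.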 The source made the active and inactive calls. No stated cut-off is given here; in the data, active = GI50 up to about 1.1 µM and inactive = higher.

Consider `C/C(=N\O)c1sc(-n2nc(-c3ccccc3)cc2-c2ccccc2)nc1C`, for which the GI50 in the experiment with XF498 was > 10 µM (inactive); in the experiment with SNB-78, 29.8 µM (inactive); with KM-20L2 it was 11.5 µM (inactive); in the experiment with DMS-114, 12.4 µM (inactive); in the experiment with RXF 631, 14.8 µM (inactive); in the experiment with LXFL 529, 11.7 µM (inactive). For the same compound, the GI50 was 22.5 µM (inactive) in the experiment on DMS-273, > 10 µM (inactive) in the experiment with HOP-18 and 11.5 µM (inactive) with DLD-1.
Turning to `N#CC1=C(c2ccccc2)C(O)(c2ccccc2)NC1=O` (stereo not given), the GI50 was > 100 µM (inactive) in the experiment with XF498; 47.5 µM (inactive) in the experiment with KM-20L2; > 100 µM (inactive) in the experiment with DMS-114; 99.8 µM (inactive) with RXF 631; > 100 µM (inactive) in the experiment with LXFL 529; > 100 µM (inactive) with DMS-273. Further, the GI50 was 31.7 µM (inactive) in the experiment with HOP-18 and 71.3 µM (inactive) with DLD-1.
Regarding `CC(C)=CC(C(O)c1ccccc1)S(=O)(=O)c1nccn1C` (stereo not given), the GI50 in the experiment with XF498, in the experiment on KM-20L2, in the experiment with DMS-114, in the experiment with RXF 631, in the experiment with LXFL 529 and in the experiment on DMS-273 was > 100 µM (inactive) each time. Moreover, the GI50 in the experiment with HOP-18 and in the experiment with DLD-1 was > 100 µM (inactive) in each case.
For `COC(=O)C1=C(c2ccc3c(c2)OCO3)OC(c2ccc3c(c2)OCO3)C1` (stereo not given), the GI50 in the experiment on XF498 was > 100 µM (inactive); in the experiment with SNB-78 it was > 100 µM (inactive); in the experiment on KM-20L2, > 100 µM (inactive); in the experiment on DMS-114, 30.1 µM (inactive); in the experiment on RXF 631, > 100 µM (inactive); in the experiment on LXFL 529, 38.4 µM (inactive). The GI50 with DMS-273 is > 100 µM (inactive); in the experiment with HOP-18, 69.7 µM (inactive); with DLD-1 it was > 100 µM (inactive).
Consider `O=C1c2ccccc2NC1(c1ccccc1)c1c(-c2ccccc2)[nH]c2ccccc12` (stereo not given), for which the GI50 was 44 µM (inactive) in the experiment with XF498; 33.6 µM (inactive) in the experiment on SNB-78; 25.1 µM (inactive) in the experiment with KM-20L2; 15.3 µM (inactive) with DMS-114; 9.73 µM (inactive) in the experiment with RXF 631; 20.4 µM (inactive) in the experiment with LXFL 529. The GI50 in the experiment with DMS-273 was 6.84 µM (inactive); with HOP-18, 44.8 µM (inactive); with DLD-1, 9.2 µM (inactive).
For `CN1CCN(C)C12C=c1ccccc1=CC21CC1`, the GI50 was 23.9 µM (inactive) with XF498; > 72.4 µM (inactive) in the experiment on SNB-78; 27.3 µM (inactive) in the experiment on KM-20L2; 18.2 µM (inactive) with DMS-114; 53.6 µM (inactive) in the experiment with RXF 631; 17.1 µM (inactive) in the experiment with LXFL 529. The GI50 in the experiment with DMS-273 is 57 µM (inactive); in the experiment on HOP-18, > 75 µM (inactive); in the experiment on DLD-1 it was 26.4 µM (inactive).
Take `CCCCCCCCCc1cc(=O)c2ccc(O)cc2o1`: the GI50 in the experiment on XF498 is 86.5 µM (inactive); with SNB-78, 38.9 µM (inactive); in the experiment on KM-20L2 it was > 100 µM (inactive); in the experiment with DMS-114 it was 11.3 µM (inactive); in the experiment on RXF 631, 46.2 µM (inactive); in the experiment on LXFL 529, 41.7 µM (inactive). Also, the GI50 with DMS-273 is 46.8 µM (inactive); with HOP-18, > 100 µM (inactive); in the experiment with DLD-1, > 100 µM (inactive).
For the compound `O=S(=O)(O)c1cc(/N=N/c2cc(S(=O)(=O)O)c3cccnc3c2O)ccc1/C=C/c1ccc(/N=N/c2cc(S(=O)(=O)O)c3cccnc3c2O)cc1S(=O)(=O)O`, the GI50 was > 100 µM (inactive) in the experiment with XF498; > 100 µM (inactive) in the experiment with SNB-78; > 66.5 µM (inactive) in the experiment with KM-20L2; > 100 µM (inactive) with DMS-114; > 100 µM (inactive) in the experiment with RXF 631; > 100 µM (inactive) in the experiment on LXFL 529. For the same compound, the GI50 in the experiment on DMS-273, with HOP-18 and in the experiment with DLD-1 was > 100 µM (inactive) throughout.
For `C=C[C@]1(C)CCC2=C(CCC3C2(C)CCC[C@@]3(C)COC(C)=O)C1` (stereo not given in full), the GI50 was 19.9 µM (inactive) with XF498; 18.7 µM (inactive) in the experiment on SNB-78; 17.5 µM (inactive) in the experiment with KM-20L2; 22 µM (inactive) in the experiment on DMS-114; 16.7 µM (inactive) with RXF 631; 17.5 µM (inactive) with LXFL 529. For the same compound, the results for the GI50 in the experiment on HOP-18 and in the experiment with DLD-1 were 25.9 µM (inactive) and 18.5 µM (inactive), respectively.
For `COc1cc(C2c3cc4c(cc3[C@@H](OCCN(C)C)C3COC(=O)[C@H]23)OCO4)cc(OC)c1O` (stereo not given in full), the GI50 in the experiment with XF498 is 0.239 µM (active); with SNB-78, 5.13 µM (inactive); with KM-20L2, 0.855 µM (active); in the experiment on RXF 631, 0.0655 µM (active); with LXFL 529, 2.79 µM (inactive); in the experiment with DMS-273, 0.052 µM (active). Further, the GI50 is 0.42 µM (active) in the experiment with HOP-18 and 1.03 µM (active) with DLD-1.
Turning to `CC(C)C1=Cc2ccc3c(c2C(=O)C1=O)CCCC3`, the GI50 was 2.15 µM (inactive) in the experiment on XF498; 4.93 µM (inactive) in the experiment with SNB-78; 19.1 µM (inactive) in the experiment with KM-20L2; 1.16 µM (inactive) in the experiment on DMS-114; 9.91 µM (inactive) in the experiment on RXF 631; 1.08 µM (active) in the experiment on LXFL 529. For the same compound, the GI50 was 2.21 µM (inactive) in the experiment with DMS-273, 3.51 µM (inactive) in the experiment on HOP-18 and 1 µM (active) in the experiment on DLD-1.
